Measured values published in US9504752B2, “Sterilizer, oral cavity sterilizer, sterilization method, sterilization apparatus, and sterilizer evaluation method” (AZ CO., LTD., priority 2011, dated 2016).

Test system: Streptococcus aureus
Assay: Sterilization effect of hydrogen peroxide photolysis (laser 400±20 nm) with catalase activity inhibitor, viable count on BHI agar
Format: cell-based
Settings: only hydrogen peroxide, no laser, no scutellaria, H(+)L(−)O(−); FIG. 4
Description: An experiment for examining an effect of the catalase activity inhibitor of enhancing a sterilization effect was conducted. In the experiment, […] which is a catalase-positive bacterium was used as a target of the sterilization. A bacterium suspension having a concentration of 10^7 cells/mL was prepared by using the bacterium and saline, and the suspension was used for the experiment. A semiconductor laser (product name: […] Experiment samples were prepared by using scutellaria as the catalase activity inhibitor, diluting the scutellaria with ultrapure water, followed by sterilization by filtration through a 0.22 μm filter, and then adding the scutellaria solution to the mixture liquids of bacterium suspension and hydrogen peroxide to attain final scutellaria concentrations of 0, 1, and 3 mg/mL. [table] The laser irradiation was performed immediately after preparing the experiment samples, and 50 μL of the sample after the irradiation and 50 μL of 5000 U/mL catalase were mixed to stop the reaction of hydrogen peroxide. After that, a 10-fold dilution series was prepared and was seeded on a BHI agar culture medium, followed by culturing under an aerophilic condition of 37° C. for 24 hours, and then evaluation of the sterilization effect was conducted. […]

OO [hydrogen peroxide] was tested, and the sterilization effect was “no sterilization effect”.
